Residues, ends and D or L forms follow the SMILES beside them.
Assays:
[1] = target: T1, Granulocyte colony-stimulating factor receptor (Homo sapiens) (UniProt Q99062); assay: Potency index, ratio of P8-2KA KD to test compound KD for binding affinity to recombinant G-CSFR extracellular domain (unknown origin)
T1 sequence (whole entry): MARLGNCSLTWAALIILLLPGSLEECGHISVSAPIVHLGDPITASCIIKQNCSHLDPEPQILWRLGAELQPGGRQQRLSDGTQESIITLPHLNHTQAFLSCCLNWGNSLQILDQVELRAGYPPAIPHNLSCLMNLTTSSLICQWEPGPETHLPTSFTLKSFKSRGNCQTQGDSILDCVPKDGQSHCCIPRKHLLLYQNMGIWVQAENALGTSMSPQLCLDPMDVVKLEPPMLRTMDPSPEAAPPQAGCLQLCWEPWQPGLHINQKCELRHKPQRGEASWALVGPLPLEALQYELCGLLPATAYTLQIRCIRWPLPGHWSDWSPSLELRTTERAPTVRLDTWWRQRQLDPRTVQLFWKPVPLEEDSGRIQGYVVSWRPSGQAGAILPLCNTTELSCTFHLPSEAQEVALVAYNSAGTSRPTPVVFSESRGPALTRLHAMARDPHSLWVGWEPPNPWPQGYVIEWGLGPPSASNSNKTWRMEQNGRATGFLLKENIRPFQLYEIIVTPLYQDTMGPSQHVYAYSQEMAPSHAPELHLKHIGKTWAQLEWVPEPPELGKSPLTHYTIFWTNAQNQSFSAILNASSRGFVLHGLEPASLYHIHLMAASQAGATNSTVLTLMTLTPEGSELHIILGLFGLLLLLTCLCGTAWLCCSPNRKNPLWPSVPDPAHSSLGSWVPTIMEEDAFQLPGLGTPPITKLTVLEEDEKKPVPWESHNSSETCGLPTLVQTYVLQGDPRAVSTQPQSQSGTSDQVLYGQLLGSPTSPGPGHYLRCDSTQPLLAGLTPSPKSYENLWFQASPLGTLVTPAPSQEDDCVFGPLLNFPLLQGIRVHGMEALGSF

[2] = Stability of the compound at 20 deg C assessed as change in alpha-helical structure by CD spectra analysis; assay type: physicochemical
[3] = Binding affinity to recombinant G-CSFR extracellular domain (unknown origin) by surface plasmon resonance analysis; parameters: species or system Homo sapiens

Ratio [1]	Stability [2]	Kd [3] [pM]	Compound
24	Stable	16000	H-AELAILEAEIAALEGGGGGGGYLEMLKLKLAEAKRY-OH
–	–	240	CC[C@H](C)[C@H](NC(=O)[C@H](CCC(=O)O)NC(=O)[C@H](C)NC(=O)[C@H](CCC(=O)O)NC(=O)[C@H](CC(C)C)NC(=O)[C@H](C)NC(=O)[C@H](C)NC(=O)[C@H](CC(C)C)NC(=O)[C@H](CCC(=O)O)NC(=O)[C@H](C)NC(=O)[C@H](C)NC(=O)[C@@H](N)CS)C(=O)N[C@@H](C)C(=O)N[C@@H](C)C(=O)N[C@@H](CC(C)C)C(=O)N[C@@H](CCC(=O)O)C(=O)NCC(=O)NCC(=O)NCC(=O)NCC(=O)NCC(=O)NCC(=O)NCC(=O)N[C@@H](Cc1ccc(O)cc1)C(=O)N[C@@H](CC(C)C)C(=O)N[C@@H](CCC(=O)O)C(=O)N[C@@H](CCSC)C(=O)N[C@@H](CC(C)C)C(=O)N[C@@H](CCCCN)C(=O)N[C@@H](CC(C)C)C(=O)N[C@@H](CCCCN)C(=O)N[C@@H](CC(C)C)C(=O)N[C@@H](C)C(=O)N[C@@H](CCC(=O)O)C(=O)N[C@@H](C)C(=O)N[C@@H](CCCCN)C(=O)N[C@@H](CCCNC(=N)N)C(=O)N[C@@H](Cc1ccc(O)cc1)C(=O)N[C@@H](CS)C(=O)O (H-CAAELAALEAEIAALEGGGGGGGYLEMLKLKLAEAKRYC-OH)
–	–	180	CC[C@H](C)[C@H](NC(=O)[C@H](C)NC(=O)[C@H](CC(C)C)NC(=O)[C@H](CCC(=O)O)NC(=O)[C@H](C)NC(=O)[C@H](C)NC(=O)[C@@H](N)CS)C(=O)N[C@@H](CC(C)C)C(=O)N[C@@H](CCC(=O)O)C(=O)N[C@@H](C)C(=O)N[C@@H](CCC(=O)O)C(=O)N[C@H](C(=O)N[C@@H](C)C(=O)N[C@@H](C)C(=O)N[C@@H](CC(C)C)C(=O)N[C@@H](CCC(=O)O)C(=O)NCC(=O)NCC(=O)NCC(=O)NCC(=O)NCC(=O)NCC(=O)NCC(=O)N[C@@H](Cc1ccc(O)cc1)C(=O)N[C@@H](CC(C)C)C(=O)N[C@@H](CCC(=O)O)C(=O)N[C@@H](CCSC)C(=O)N[C@@H](CC(C)C)C(=O)N[C@@H](CCCCN)C(=O)N[C@@H](CC(C)C)C(=O)N[C@@H](CCCCN)C(=O)N[C@@H](CC(C)C)C(=O)N[C@@H](C)C(=O)N[C@@H](CCC(=O)O)C(=O)N[C@@H](C)C(=O)N[C@@H](CCCCN)C(=O)N[C@@H](CCCNC(=N)N)C(=O)N[C@@H](Cc1ccc(O)cc1)C(=O)N[C@@H](CS)C(=O)O)[C@@H](C)CC (H-CAAELAILEAEIAALEGGGGGGGYLEMLKLKLAEAKRYC-OH)
–	–	160	CC[C@H](C)[C@H](NC(=O)[C@H](C)NC(=O)[C@H](CC(C)C)NC(=O)[C@H](CCC(=O)O)NC(=O)[C@H](C)NC(=O)[C@H](C)NC(=O)[C@@H](N)CS)C(=O)N[C@@H](CC(C)C)C(=O)N[C@@H](CCC(=O)O)C(=O)N[C@@H](C)C(=O)N[C@@H](CCC(=O)O)C(=O)N[C@H](C(=O)N[C@@H](C)C(=O)N[C@@H](C)C(=O)N[C@@H](CC(C)C)C(=O)N[C@@H](CCC(=O)O)C(=O)NCC(=O)NCC(=O)NCC(=O)NCC(=O)NCC(=O)NCC(=O)NCC(=O)N[C@@H](Cc1ccc(O)cc1)C(=O)N[C@@H](CC(C)C)C(=O)N[C@@H](C)C(=O)N[C@@H](CCSC)C(=O)N[C@@H](CC(C)C)C(=O)N[C@@H](CCCCN)C(=O)N[C@@H](CC(C)C)C(=O)N[C@@H](CCCCN)C(=O)N[C@@H](CC(C)C)C(=O)N[C@@H](C)C(=O)N[C@@H](CCC(=O)O)C(=O)N[C@@H](C)C(=O)N[C@@H](CCCCN)C(=O)N[C@@H](CCCNC(=N)N)C(=O)N[C@@H](Cc1ccc(O)cc1)C(=O)N[C@@H](CS)C(=O)O)[C@@H](C)CC (H-CAAELAILEAEIAALEGGGGGGGYLAMLKLKLAEAKRYC-OH)
–	Stable	380000	H-AELAALEAELAALEGGGGGGGKLAMLKLKLAELKRY-OH
–	–	2800	CC[C@H](C)[C@H](NC(=O)[C@H](C)NC(=O)[C@H](CC(C)C)NC(=O)[C@H](CCC(=O)O)NC(=O)[C@H](C)NC(=O)[C@H](C)NC(=O)[C@@H](N)CS)C(=O)N[C@@H](CC(C)C)C(=O)N[C@@H](CCC(=O)O)C(=O)N[C@@H](C)C(=O)N[C@@H](CCC(=O)O)C(=O)N[C@H](C(=O)N[C@@H](C)C(=O)N[C@@H](C)C(=O)N[C@@H](CC(C)C)C(=O)N[C@@H](CCC(=O)O)C(=O)NCC(=O)NCC(=O)NCC(=O)NCC(=O)NCC(=O)NCC(=O)NCC(=O)N[C@@H](Cc1ccc(O)cc1)C(=O)N[C@@H](CC(C)C)C(=O)N[C@@H](CCC(=O)O)C(=O)N[C@@H](CCSC)C(=O)N[C@@H](CC(C)C)C(=O)N[C@@H](CCCCN)C(=O)N[C@@H](CC(C)C)C(=O)N[C@@H](CCCCN)C(=O)N[C@@H](CC(C)C)C(=O)N[C@@H](C)C(=O)N[C@@H](CCC(=O)O)C(=O)N[C@@H](CC(C)C)C(=O)N[C@@H](CCCCN)C(=O)N[C@@H](CCCNC(=N)N)C(=O)N[C@@H](Cc1ccc(O)cc1)C(=O)N[C@@H](CS)C(=O)O)[C@@H](C)CC (H-CAAELAILEAEIAALEGGGGGGGYLEMLKLKLAELKRYC-OH)
–	–	490	CC[C@H](C)[C@H](NC(=O)[C@H](C)NC(=O)[C@H](CC(C)C)NC(=O)[C@H](CCC(=O)O)NC(=O)[C@H](C)NC(=O)[C@H](C)NC(=O)[C@@H](N)CS)C(=O)N[C@@H](CC(C)C)C(=O)N[C@@H](CCC(=O)O)C(=O)N[C@@H](C)C(=O)N[C@@H](CCC(=O)O)C(=O)N[C@@H](CC(C)C)C(=O)N[C@@H](C)C(=O)N[C@@H](C)C(=O)N[C@@H](CC(C)C)C(=O)N[C@@H](CCC(=O)O)C(=O)NCC(=O)NCC(=O)NCC(=O)NCC(=O)NCC(=O)NCC(=O)NCC(=O)N[C@@H](Cc1ccc(O)cc1)C(=O)N[C@@H](CC(C)C)C(=O)N[C@@H](CCC(=O)O)C(=O)N[C@@H](CCSC)C(=O)N[C@@H](CC(C)C)C(=O)N[C@@H](CCCCN)C(=O)N[C@@H](CC(C)C)C(=O)N[C@@H](CCCCN)C(=O)N[C@@H](CC(C)C)C(=O)N[C@@H](C)C(=O)N[C@@H](CCC(=O)O)C(=O)N[C@@H](C)C(=O)N[C@@H](CCCCN)C(=O)N[C@@H](CCCNC(=N)N)C(=O)N[C@@H](Cc1ccc(O)cc1)C(=O)N[C@@H](CS)C(=O)O (H-CAAELAILEAELAALEGGGGGGGYLEMLKLKLAEAKRYC-OH)
–	–	890	CC[C@H](C)[C@H](NC(=O)[C@H](C)NC(=O)[C@H](CC(C)C)NC(=O)[C@H](CCC(=O)O)NC(=O)[C@H](C)NC(=O)[C@H](C)NC(=O)[C@@H](N)CS)C(=O)N[C@@H](CC(C)C)C(=O)N[C@@H](CCC(=O)O)C(=O)N[C@@H](C)C(=O)N[C@@H](CCC(=O)O)C(=O)N[C@H](C(=O)N[C@@H](C)C(=O)N[C@@H](C)C(=O)N[C@@H](CC(C)C)C(=O)N[C@@H](CCC(=O)O)C(=O)NCC(=O)NCC(=O)NCC(=O)NCC(=O)NCC(=O)NCC(=O)NCC(=O)N[C@@H](CCCCN)C(=O)N[C@@H](CC(C)C)C(=O)N[C@@H](CCC(=O)O)C(=O)N[C@@H](CCSC)C(=O)N[C@@H](CC(C)C)C(=O)N[C@@H](CCCCN)C(=O)N[C@@H](CC(C)C)C(=O)N[C@@H](CCCCN)C(=O)N[C@@H](CC(C)C)C(=O)N[C@@H](C)C(=O)N[C@@H](CCC(=O)O)C(=O)N[C@@H](C)C(=O)N[C@@H](CCCCN)C(=O)N[C@@H](CCCNC(=N)N)C(=O)N[C@@H](Cc1ccc(O)cc1)C(=O)N[C@@H](CS)C(=O)O)[C@@H](C)CC (H-CAAELAILEAEIAALEGGGGGGGKLEMLKLKLAEAKRYC-OH)

Source: ChEMBL document CHEMBL6114948, “Deep mutational scanning-guided design of a high-affinity helix-loop-helix peptide targeting G-CSF receptor” (Bioorg Med Chem Lett, 2025)
